Test system: antibody-forming cells (AFC) in the spleen
Assay: Influence of compound on humoral immune response to sheep erythrocytes, C57B1/6 female mice (AFC in spleen, hemagglutinins)
Format: in vivo
Details: for Amount of antibody-forming cells per 10^6 spleen cells / Amount of antibody-forming cells per spleen / Effect on relative amount of AFC (per 10^6 spleen cells) / Effect on total AFC amount (per spleen) / Effect on hemagglutinin titers / Spleen index: i.v.; for Amount of antibody-forming cells per 10^6 spleen cells / Amount of antibody-forming cells per spleen / Effect on relative amount of AFC (per 10^6 spleen cells) / Effect on total AFC amount (per spleen): 5th day; for Amount of antibody-forming cells per 10^6 spleen cells / Amount of antibody-forming cells per spleen: M ± SEM; for Effect on relative amount of AFC (per 10^6 spleen cells) / Effect on total AFC amount (per spleen) / Effect on hemagglutinin titers: vs control; for Spleen index: with SRBC i.p.; for immunostimulating action: 91 and 136.5 μg/mouse
Procedure: The increase was calculated as compared with the amount of cells in the animals immunised only with sheep erythrocytes.
0.15 ml of compound 10 was administered intravenously to 6 mice females of CS7B1/6 line (weight 18-22 g) in doses of 45.5, 91 and 136.5 μg of compound 10 per capita for each testing group according to the dose. Simultaneously, a suspension of 5·10^7 sheep erythrocytes was injected intraperitoneally (0.2 ml per capita). Mice in the control group were injected intravenously with equal volume of saline. The effects of compound 10 on humoral immune response were analyzed both by counting the quantity of AFC in the spleen according to Cunningham (per 10^6 spleen cells and per spleen) and estimating the titers of hemagglutining antibodies in serum of the animals (Cunningham A. J., Nature, 1965, Vol.207, No 5001. P.1106-1107), while the titers of hemagglutinating antibodies were evaluated according to litterature (Evans J. et al., Cell, 1974; Vol 3., p.153-158, Feizi T., Menger E., Transfusion, 1970, Vol. 10, p.33-35,).
(§1) 0.15 ml of compound 11 was administered intravenously to 6 female mice of the C57B1/6 line (weight 18-22 g) in doses of 45.5, 91 and 136.5 μg of compound 11 per capita for each testing group according to the dose. Simultaneously, a suspension of 5·10^7 sheep erytrocytes was injected intraperitoneally (0.2 ml per capita). Mice in the control group were injected intravenously with an equal volume of saline. The effects of compound 11 on humoral immune response was analysed both by counting the quantity of AFC in the spleen according to Cunningham (per 10^6 spleen cells and per spleen) and estimating the titers of hemagglutining antibodies in serum of the animals.
as §1, with “12” for “11”, “erythrocytes” for “erytrocytes”, “analyzed” for “analysed”
as §1, with “compound 8” for “compound 11”, “sheep erythrocytes” for “sheep erytrocytes”, “Mice of” for “Mice in”, “response were analyzed” for “response was analysed”
0.15 ml of compound 3 was administered intravenously to 6 female mice of the C57B1/6 line (weight 18-22 g) in doses of 45.5, 91 and 136.5 μg of compound 3 per capita for each testing group according to the dose. Simultaneously, a suspension of 5·10^7 sheep erytrocytes was injected intraperitoneally (0.2 ml per capita). Mice of the control group were injected intravenously with equal volume of saline.

Row | Structure (SMILES) | Immunogenic activity (45.5 μg/mouse) | Amount of antibody-forming cells per 10^6 spleen cells (45.5 μg/mouse) | Amount of antibody-forming cells per spleen (45.5 μg/mouse) | Effect on relative amount of AFC (per 10^6 spleen cells) (45.5 μg/mouse) | Effect on total AFC amount (per spleen) (45.5 μg/mouse) | Effect on hemagglutinin titers (45.5 μg/mouse) | Spleen index (45.5 μg/mouse) | immunostimulating effect in vivo in micelle form (91 μg/mouse) | Amount of antibody-forming cells per 10^6 spleen cells (91 μg/mouse) | Amount of antibody-forming cells per spleen (91 μg/mouse) | Effect on hemagglutinin titers (91 μg/mouse) | Spleen index (91 μg/mouse) | Amount of antibody-forming cells per 10^6 spleen cells (136.5 μg/mouse) | Amount of antibody-forming cells per spleen (136.5 μg/mouse) | immunostimulating action | Effect on hemagglutinin titers (136.5 μg/mouse) | Spleen index (136.5 μg/mouse)
1 | CC1=C(/C=C/C(C)=C/C=C/C(C)=C/C(=O)N[C@@H](Cc2ccc(OP(=O)(O)O)cc2)C(=O)O)C(C)(C)CCC1 (stereo in doubt) [Compound 4, N-(all-trans-Retinoyl)-O-phospho-L-tyrosine] | no immunogenic activity | 405.0±47.9 cells per 10^6 spleen cells | 55.0±6.7 × 10^3 | −0.3 p >0.05% | −8.9 p > 0.05% | −3.2 p > 0.05% | 6.6 ± 0.5 10^−3 | display immunostimulating effect in vivo | 692.9±44.8 cells per 10^6 spleen cells | 87.6±4.3 × 10^3 | +4.8 p > 0.05% | 6.3 ± 0.4 10^−3 | 1354.3±99.9 cells per 10^6 spleen cells | 138.9±10.0 × 10^3 | high immunostimulating action |  | 
2 | CC1=C(/C=C/C(C)=C/C=C/C(C)=C\C(=O)NCCOP(=O)(O)O)C(C)(C)CCC1 [Compound 1a, N-(13cis-Retinoyl)-O-phospho-2-aminoethanol] | no immunogenic activity | 815.8±70.9 cells per 10^6 spleen cells | 104.6±10.7 × 10^3 | +5.6 p > 0.05% | +16.4 p > 0.05% | −1,3 p > 0.05% | 6.1 ± 0.2 10^−3 | display immunostimulating effect in vivo | 997.2±43.4 cells per 10^6 spleen cells | 114.5±8.2 × 10^3 | −1,3 p > 0.05% | 6.2 ± 0.2 10^−3 | 1176.9±58.5 cells per 10^6 spleen cells | 149.4±9.4 × 10^3 | marked immunostimulating action | +6,5 p > 0.05% | 6.9 ± 0.3 10^−3
